Measured values taken from patent publication US9751909B2, “Synthesis and uses of nucleic acid compounds with conformationally restricted monomers” (Marina Biotech, Inc., priority 2011, dated 2017).

Legend:
[1] = Tolerability in mice: body weight, clinical signs, spleen weight, serum chemistry; details: BALB/c mice
Description: Treatment groups (n=5) were injected intravenously at a 10 mg/kg dose with a dosing schedule of Q1d×3 (every day for three consecutive days). Necropsy was performed at 24 h after the last dose. Body weights and clinical signs were monitored during the course of the study. Liver and spleen were harvested.

[2] = system: microRNA-122; experiment: De-repression of downstream mRNAs of microRNA-122 in mouse liver by CRN-containing antimir; type: in vivo, mouse (BALB/c)
Description: The CRN-containing antimir CRN-Antimir-122-8a was synthesized by the methods of this invention. MicroRNA-122 is an miRNA shown to be liver-specific and involved in lipid metabolism and possibly hepatitis C virus replication. MicroRNA-122 regulates various downstream mRNAs. CRN-Antimir-122-8a is 16-mer oligonucleotide complementary to the 5′ end of microRNA-122 that can silence microRNA-122 and de-repress its downstream targets.
Liver and spleen were harvested.
The end points determined were expression of downstream genes AldoA (Aldolase A), P4H4 (Prolyl 4-hydroxylase gene), and SLC7A1 (Solute carrier family 7). Negative control was a mismatched Antimir-122 sequence.

[3] = 8-week old BALB/c mice, 10 mg/kg intravenously Q1d×3, necropsy 24 h after last dose

Question: With “crnm5CsdCsdAscrnTscrnTsdGscrnTscrnm5CsdAscrnm5CsdAsdCsdTscrnm5Cscrnm5CsdA (antisense CCATTGTCACACTCCA; CRN nucleotides, phosphorothioate linkages; (1)..(16) Phosphorothioate linkage between nucleotides; modified_base (1)..(1) Conformationally restricted 5′-methyl nucleomonomer; modified_base (2)..(3) deoxy-nucleotide; modified_base (4)..(5) Conformationally restricted nucleomonomer; modified_base (6)..(6) deoxy-nucleotide; modified_base (7)..(7) Conformationally restricted nucleomonomer; modified_base (8)..(8) Conformationally restricted 5′-) [CRN-Antimir-122-8a, 16-mer oligonucleotide complementary to the 5′ end of microRNA-122; CRN/deoxy nucleotides with phosphorthioate linkages]” as the substance, how does the “alterations in liver and kidney enzymes” value ([1]; 10 mg/kg intravenously Q1d×3) read?
Answer: No alterations

Question: What about the “body weight loss after dosing” value ([1]; 10 mg/kg intravenously Q1d×3) of the same substance?
Answer: No body weight loss

Question: What about the “other serum chemistry parameters” value ([1]; 10 mg/kg intravenously Q1d×3) of the same substance?
Answer: within expected normal levels

Question: And the tolerability ([1]; 10 mg/kg intravenously Q1d×3)?
Answer: well tolerated

Question: What about the “spleen weights relative to buffer control” value ([1]; 10 mg/kg intravenously Q1d×3, necropsy 24 h after last dose) of the same substance?
Answer: unaltered

Question: And the “de-repression in liver AldoA mRNA relative to buffer control” value [2, 3]?
Answer: Up to 2.5 fold

Question: What about the “de-repression in liver P4H4 mRNA relative to buffer control” value [2, 3] of the same substance?
Answer: Up to 1.5 fold

Question: What about the “de-repression in liver SLC7A1 mRNA relative to buffer control” value [2, 3] of the same substance?
Answer: Up to 1.3 fold

Question: What about the “de-repression of downstream genes ALDOA, SLC7A, P4H4 in the mouse model” value ([2]; mouse model, result in words) of the same substance?
Answer: demonstrated de-repression
